Data taken from article PMC7997411, “Discovery and Optimization of Selective Inhibitors of Meprin α (Part II)” (Pharmaceuticals, 2021).
Where “and” joins values, the source holds several entries; their conditions need not be identical. Equal entries are not always repeated. Where two headings read alike, the source gives them in different places.

Assays:
ADAM17 = target: T1, ADAM17 (Homo sapiens, UniProt P78536); settings: single value given, at 10 μM ref 11; cited from earlier work
T1 construct: purchased R&D Systems 930-ADB
T1 sequence (P78536 215-824): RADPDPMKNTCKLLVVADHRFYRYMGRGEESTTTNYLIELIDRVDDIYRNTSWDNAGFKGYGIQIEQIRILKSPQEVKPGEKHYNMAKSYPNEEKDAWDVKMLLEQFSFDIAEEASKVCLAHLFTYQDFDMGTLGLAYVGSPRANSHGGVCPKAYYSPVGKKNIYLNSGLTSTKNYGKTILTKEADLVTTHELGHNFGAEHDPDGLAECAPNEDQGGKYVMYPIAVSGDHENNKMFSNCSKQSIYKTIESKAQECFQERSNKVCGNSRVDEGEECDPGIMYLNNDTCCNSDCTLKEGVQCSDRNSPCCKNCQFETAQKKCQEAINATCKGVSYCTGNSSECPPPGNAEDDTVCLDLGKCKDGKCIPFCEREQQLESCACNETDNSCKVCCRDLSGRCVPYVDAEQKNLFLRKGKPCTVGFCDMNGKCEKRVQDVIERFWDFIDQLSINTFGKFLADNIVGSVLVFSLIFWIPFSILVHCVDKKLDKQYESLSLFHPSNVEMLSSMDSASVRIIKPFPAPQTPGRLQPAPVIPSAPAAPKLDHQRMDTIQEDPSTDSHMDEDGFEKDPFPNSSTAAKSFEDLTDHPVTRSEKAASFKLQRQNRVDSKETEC

ADAM10 = target: T2, ADAM10 (Homo sapiens, UniProt O14672); settings: single value given, at 10 μM ref 11; cited from earlier work
T2 construct: purchased R&D Systems 936-AD
T2 sequence (O14672 214-748): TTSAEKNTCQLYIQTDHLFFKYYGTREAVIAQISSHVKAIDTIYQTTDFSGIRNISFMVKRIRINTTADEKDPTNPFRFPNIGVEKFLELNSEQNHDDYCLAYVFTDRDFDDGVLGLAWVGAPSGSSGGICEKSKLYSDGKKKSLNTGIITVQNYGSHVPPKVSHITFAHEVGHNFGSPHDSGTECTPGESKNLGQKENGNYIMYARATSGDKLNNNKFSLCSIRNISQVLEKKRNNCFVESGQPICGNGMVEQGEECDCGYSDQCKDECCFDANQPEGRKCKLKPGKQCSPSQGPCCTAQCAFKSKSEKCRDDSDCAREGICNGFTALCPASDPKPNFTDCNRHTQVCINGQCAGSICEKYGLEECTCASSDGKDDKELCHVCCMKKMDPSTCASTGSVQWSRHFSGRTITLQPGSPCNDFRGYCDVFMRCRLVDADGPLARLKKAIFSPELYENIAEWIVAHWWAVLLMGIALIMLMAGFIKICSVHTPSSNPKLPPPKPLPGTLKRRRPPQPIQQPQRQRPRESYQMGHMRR

MMP13 = target: T3, MMP13 (Homo sapiens, UniProt P45452); settings: single value given, at 10 μM ref 11; cited from earlier work
T3 construct: purchased R&D Systems 511-MM

MMP2 = target: T4, MMP2 (Homo sapiens, UniProt P08253); settings: single value given, at 10 μM ref 11; cited from earlier work
T4 construct: purchased R&D Systems 902-MP
T4 sequence (P08253 110-660): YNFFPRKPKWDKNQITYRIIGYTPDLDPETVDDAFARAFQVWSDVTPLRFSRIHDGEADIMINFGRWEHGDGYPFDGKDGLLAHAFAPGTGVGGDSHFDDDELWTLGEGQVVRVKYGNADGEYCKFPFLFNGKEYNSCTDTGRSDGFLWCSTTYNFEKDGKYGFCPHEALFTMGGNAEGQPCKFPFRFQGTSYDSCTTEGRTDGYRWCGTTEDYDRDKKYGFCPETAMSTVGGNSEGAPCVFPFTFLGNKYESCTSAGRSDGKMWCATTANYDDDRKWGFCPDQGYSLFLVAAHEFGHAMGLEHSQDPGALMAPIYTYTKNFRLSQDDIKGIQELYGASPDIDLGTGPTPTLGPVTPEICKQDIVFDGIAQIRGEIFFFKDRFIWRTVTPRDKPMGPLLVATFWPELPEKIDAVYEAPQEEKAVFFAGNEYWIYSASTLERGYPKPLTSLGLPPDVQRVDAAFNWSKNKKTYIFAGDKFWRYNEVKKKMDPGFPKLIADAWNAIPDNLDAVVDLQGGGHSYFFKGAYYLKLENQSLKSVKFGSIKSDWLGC

Meprin α [1] = settings: cited from earlier work
MMP9 = target: T5, MMP9 (Homo sapiens, UniProt P14780); settings: single value given, at 10 μM ref 11; cited from earlier work
T5 construct: purchased R&D Systems 911-MP
T5 sequence (P14780 94-707): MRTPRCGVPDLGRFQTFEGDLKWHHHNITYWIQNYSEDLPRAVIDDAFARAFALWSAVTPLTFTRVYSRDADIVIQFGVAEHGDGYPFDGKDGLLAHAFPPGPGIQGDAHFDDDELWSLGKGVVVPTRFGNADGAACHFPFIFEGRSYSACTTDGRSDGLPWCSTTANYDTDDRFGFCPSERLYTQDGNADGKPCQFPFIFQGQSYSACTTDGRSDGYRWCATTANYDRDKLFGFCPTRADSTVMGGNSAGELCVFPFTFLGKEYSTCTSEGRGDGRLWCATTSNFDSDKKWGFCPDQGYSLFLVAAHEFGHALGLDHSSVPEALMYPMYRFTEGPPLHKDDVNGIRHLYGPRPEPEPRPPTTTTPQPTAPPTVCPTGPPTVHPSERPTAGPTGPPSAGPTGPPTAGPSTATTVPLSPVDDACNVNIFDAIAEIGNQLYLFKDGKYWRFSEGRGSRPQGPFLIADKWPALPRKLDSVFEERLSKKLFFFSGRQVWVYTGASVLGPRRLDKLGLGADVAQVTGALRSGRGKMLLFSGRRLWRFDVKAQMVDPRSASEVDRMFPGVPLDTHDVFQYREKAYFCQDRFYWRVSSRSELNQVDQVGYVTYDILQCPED

Meprin β = settings: cited from earlier work
meprin α [2] = target: T6, meprin α (Homo sapiens, UniProt Q16819); assay: Meprin α assay in a 384-well plate (fluorogenic substrate Mca-YVADAPK-K(Dnp)); assay type: biochemical
T6 construct: Strep-tag; made in house; host or cells: BTI-TN-5B1-4 insect cells (baculovirus, amplified in Sf9)
T6 sequence (Q16819 66-746): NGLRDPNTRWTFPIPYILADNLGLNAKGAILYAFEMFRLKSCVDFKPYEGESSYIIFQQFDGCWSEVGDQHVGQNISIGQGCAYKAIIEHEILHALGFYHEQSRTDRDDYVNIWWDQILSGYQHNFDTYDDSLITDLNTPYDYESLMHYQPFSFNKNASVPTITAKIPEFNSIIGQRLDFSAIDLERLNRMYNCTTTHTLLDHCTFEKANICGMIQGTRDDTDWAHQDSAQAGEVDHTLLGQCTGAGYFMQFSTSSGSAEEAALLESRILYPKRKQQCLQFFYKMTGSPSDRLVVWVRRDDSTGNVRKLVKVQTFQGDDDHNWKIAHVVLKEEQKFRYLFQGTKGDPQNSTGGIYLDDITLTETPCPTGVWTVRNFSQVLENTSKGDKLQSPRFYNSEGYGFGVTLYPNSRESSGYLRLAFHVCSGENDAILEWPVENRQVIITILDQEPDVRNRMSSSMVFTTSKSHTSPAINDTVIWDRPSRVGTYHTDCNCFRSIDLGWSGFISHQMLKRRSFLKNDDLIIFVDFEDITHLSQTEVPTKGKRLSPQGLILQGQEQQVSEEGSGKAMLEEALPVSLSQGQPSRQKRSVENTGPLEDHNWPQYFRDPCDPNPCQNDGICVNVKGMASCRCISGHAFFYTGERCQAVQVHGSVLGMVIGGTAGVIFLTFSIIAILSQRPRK
Experimental: (§1) Recombinant human meprin α and meprin β were expressed using the Bac-to-Bac expression system (Gibco Life Technologies, Paisley, UK) as described before. Media and supplements were obtained from Gibco Life Technologies. Recombinant Baculoviruses were amplified in adherently growing Spodoptera frugiperda (Sf)9 insect cells at 27 °C in Grace’s insect medium supplemented with 10% fetal bovine serum, 50 units/mL penicillin, and 50 μg/mL streptomycin. Protein expression was performed in 500 mL suspension cultures of BTI-TN-5B1-4 insect cells growing in Express Five SFM supplemented with 4 mM glutamine, 50 units/mL penicillin, and 50 μg/mL streptomycin in Fernbach-flasks using a Multitron orbital shaker (INFORS AG, Bottmingen, Switzerland). Cells were infected at a density of 2 × 10^6 cells/mL with an amplified viral stock at a MOI of ~10. […] Meprins were activated by trypsin, which was removed afterwards by affinity chromatography using a column containing immobilized chicken ovomucoid, a trypsin inhibitor.
(§2) Both assays followed the same general protocol. […] After 30 min incubation at RT, the reactions were started by addition of 5 µL of 2× solutions of substrates (20 µM, meprin α Mca-YVADAPK-K(Dnp), and for meprin β Mca-EDEDED-K(Dnp)).

human meprin β = target: T7, human meprin β (Homo sapiens, UniProt Q16820); assay: Meprin β assay in a 384-well plate (fluorogenic substrate Mca-EDEDED-K(Dnp)); assay type: biochemical
T7 construct: His-tag; made in house; host or cells: BTI-TN-5B1-4 insect cells (baculovirus, amplified in Sf9)
T7 sequence (Q16820 62-701): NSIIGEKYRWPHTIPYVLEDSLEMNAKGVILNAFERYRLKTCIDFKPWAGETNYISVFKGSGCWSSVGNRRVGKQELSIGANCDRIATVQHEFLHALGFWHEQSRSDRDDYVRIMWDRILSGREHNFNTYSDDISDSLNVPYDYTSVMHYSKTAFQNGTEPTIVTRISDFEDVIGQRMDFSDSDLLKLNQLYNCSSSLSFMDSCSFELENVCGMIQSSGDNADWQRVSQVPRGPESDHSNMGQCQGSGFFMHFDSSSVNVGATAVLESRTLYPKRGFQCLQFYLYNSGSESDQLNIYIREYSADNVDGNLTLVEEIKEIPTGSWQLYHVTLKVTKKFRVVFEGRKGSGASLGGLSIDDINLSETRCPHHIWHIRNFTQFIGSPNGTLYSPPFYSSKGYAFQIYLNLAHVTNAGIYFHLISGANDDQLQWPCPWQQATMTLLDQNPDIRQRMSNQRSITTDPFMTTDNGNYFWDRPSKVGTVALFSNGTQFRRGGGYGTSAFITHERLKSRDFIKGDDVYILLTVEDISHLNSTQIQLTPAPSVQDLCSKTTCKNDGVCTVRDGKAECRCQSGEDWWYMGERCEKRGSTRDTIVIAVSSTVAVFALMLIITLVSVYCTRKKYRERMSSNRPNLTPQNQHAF
Experimental: as §1, §2

Compound	IC50 (meprin α [2]; triplicate, ± SD)	IC50 (human meprin β; triplicate, ± SD)	also measured
O=C(CN(Cc1ccc(Cl)c(O)c1F)Cc1ccc(Cl)c(O)c1F)NO [1c]			ADAM17 % activity remaining (ADAM17): 86%; ADAM10 % activity remaining (ADAM10): 86%; MMP13 % activity remaining (MMP13): 86%; MMP2 % activity remaining (MMP2): 95%; IC50 (Meprin α [1]): 0.19 ± 0.001 µM; MMP9 % activity remaining (MMP9): 91%
O=C(Cc1c(-c2ccccc2)noc1-c1ccccc1)NO [2c]			ADAM17 % activity remaining (ADAM17): 62%; ADAM10 % activity remaining (ADAM10): 80%; MMP13 % activity remaining (MMP13): 80%; MMP2 % activity remaining (MMP2): 87%; IC50 (Meprin β): 0.813 ± 0.001 µM; IC50 (Meprin α [1]): 0.004 ± 0.001 µM; MMP9 % activity remaining (MMP9): 86%
O=C(CSc1nnc(NC(=O)COc2ccccc2)s1)NO [SR19848]			IC50 (meprin α [2]): 0.217 µM; meprin α/β selectivity (in words) (meprin α [2]; Figure 1): no meprin α/β selectivity; IC50 (human meprin β): 0.329 µM
COc1cc(OC)nc(SCc2nnc(SCC(=O)NO)n2-c2ccc(C(F)(F)F)cc2)n1 [SR24003, 2-((5-(((4,6-dimethoxypyrimidin-2-yl)thio)methyl)-4-(4-(trifluoromethyl)phenyl)-4H-1,2,4-triazol-3-yl)thio)-N-hydroxyacetamide]	5.4 ± 1.2 µM	> 100 µM	
COc1ccc(-n2c(CSc3nc(C)cc(C)n3)nnc2SCC(=O)NO)cc1 [SR24139, 2-((5-(((4,6-dimethylpyrimidin-2-yl)thio)methyl)-4-(4-methoxyphenyl)-4H-1,2,4-triazol-3-yl)thio)-N-hydroxyacetamide]	4.1 ± 0.8 µM	60 ± 7 µM	
COc1ccc(-n2c(CSc3nc(OC)cc(OC)n3)nnc2SCC(=O)NO)cc1 [SR24144, 2-((5-(((4,6-dimethoxypyrimidin-2-yl)thio)methyl)-4-(4-methoxyphenyl)-4H-1,2,4-triazol-3-yl)thio)-N-hydroxyacetamide]	8.7 ± 1.1 µM	> 100 µM	inhibition of meprin β at 100 μM (in words) (human meprin β; 100 μM): complete lack of inhibition
COc1cc(OC)nc(SCc2nnc(SCC(=O)NO)n2-c2ccccc2OC)n1 [SR24459, 2-((5-(((4,6-dimethoxypyrimidin-2-yl)thio)methyl)-4-(2-methoxyphenyl)-4H-1,2,4-triazol-3-yl)thio)-N-hydroxyacetamide]	12.1 ± 3.9 µM	52 ± 1 µM	
COc1cccc(-n2c(CSc3nc(OC)cc(OC)n3)nnc2SCC(=O)NO)c1 [SR24460, 2-((5-(((4,6-dimethoxypyrimidin-2-yl)thio)methyl)-4-(3-methoxyphenyl)-4H-1,2,4-triazol-3-yl)thio)-N-hydroxyacetamide]	10.3 ± 1.1 µM	59 ± 10 µM	

More lines, main results first:

IC50 (meprin α [2]; triplicate, ± SD)	IC50 (human meprin β; triplicate, ± SD)	Compound	also measured
11.2 ± 2.6 µM	> 100 µM	COc1cc(OC)nc(SCc2nnc(SCC(=O)NO)n2-c2ccc(Br)cc2)n1 [SR24462, 2-((4-(4-bromophenyl)-5-(((4,6-dimethoxypyrimidin-2-yl)thio)methyl)-4H-1,2,4-triazol-3-yl)thio)-N-hydroxyacetamide]	
10.4 ± 2.8 µM	> 100 µM	COc1cc(OC)nc(SCc2nnc(SCC(=O)NO)n2-c2ccc(F)cc2)n1 [SR24463, 2-((5-(((4,6-dimethoxypyrimidin-2-yl)thio)methyl)-4-(4-fluorophenyl)-4H-1,2,4-triazol-3-yl)thio)-N-hydroxyacetamide]	
2 µM and 10.3 µM	> 100 µM	COc1cc(OC)nc(SCc2nnc(SCC(=O)NO)n2-c2cccc(C)c2)n1 [SR24467, 2-((5-(((4,6-dimethoxypyrimidin-2-yl)thio)methyl)-4-(m-tolyl)-4H-1,2,4-triazol-3-yl)thio)-N-hydroxyacetamide]	
10.1 ± 2.3 µM	> 100 µM	COc1cc(OC)nc(SCc2nnc(SCC(=O)NO)n2-c2cccnc2)n1 [SR24718, 2-((5-(((4,6-dimethoxypyrimidin-2-yl)thio)methyl)-4-(pyridin-3-yl)-4H-1,2,4-triazol-3-yl)thio)-N-hydroxyacetamide]	
0.6 ± 0.06 µM	75 ± 15 µM	CCN(CC)c1ccc(-n2c(CSc3nc(OC)cc(OC)n3)nnc2SCC(=O)NO)cc1 [SR26465, 2-((4-(4-(diethylamino)phenyl)-5-(((4,6-dimethoxypyrimidin-2-yl)thio)methyl)-4H-1,2,4-triazol-3-yl)thio)-N-hydroxyacetamide]	meprin α/β fold selectivity (ratio of IC50 values) (meprin α [2]; meprin α over meprin β): > 100 fold
1.1 ± 0.1 µM	> 100 µM	COc1cc(OC)nc(SCc2nnc(SCC(=O)NO)n2-c2ccc(N3CCOCC3)cc2)n1 [SR26466, 2-((5-(((4,6-dimethoxypyrimidin-2-yl)thio)methyl)-4-(4-morpholinophenyl)-4H-1,2,4-triazol-3-yl)thio)-N-hydroxyacetamide]	
2 ± 0.3 µM	> 100 µM	COc1cc(OC)nc(SCc2nnc(SCC(=O)NO)n2-c2cccc3ccccc23)n1 [SR26467, 2-((5-(((4,6-dimethoxypyrimidin-2-yl)thio)methyl)-4-(naphthalen-1-yl)-4H-1,2,4-triazol-3-yl)thio)-N-hydroxyacetamide]	
